The source of these data is patent US20210023523A1, “PARALLEL ORGANIC SYNTHESIS ON PATTERNED PAPER USING A SOLVENT-REPELLING MATERIAL” (The Governors of the University of Alberta, priority 2013, published 2021).

The test system of test [1] is MDA-MB-231-GFP cells. Kind of test: Short-term adhesion of MDA-MB-231-GFP cells to peptides synthesized on Teflon-patterned paper arrays. It counts as cell-based. The note with it: for binding of cells to peptide-modified paper: confocal microscopy, FIG. 10b, 3 hours of incubation. The method, then:
When immobilized on paper, 5 out of the 8 peptides synthesized supported adhesion of MDA-MB-231 breast carcinoma at levels similar to or higher than the positive control GRGDS. The other three peptides supported greater adhesion than the scrambled peptide, GGRDS.
The images represent short term adhesion of cells after 3 hours of incubation on the array.
In FIG. 14(a), a fluorescent gel scanner was used to validate adhesion of MDA-MB-231-GFP cells to phage-derived peptides on peptide-arrays. […] FIG. 14(c) illustrates digitization of the number of cells per zone from fluorescent gel scanner images of the 32 peptides. The (+) and (−) lines represent the intensity level of the positive and negative controls.
FIG. 18 illustrates a typical cell-binding experiment on a half array (40 peptides identified from two panning experiments, and 8 controls). […] FIG. 18c consists of the zones of interest for each peptide extracted from FIG. 18a, and organized by peptides. The average intensity of fluorescence for each peptide zone is then converted into a number of cells per zone through a calibration curve previously established for these cells (FIG. 18d). FIG. 18e is the resulting plot with standard deviation over the four replicates.

For test [2], the system named is MCF-7 breast cancer cells. The experiment in a line: Culture of MCF-7 cells on peptide-modified array with or without paclitaxel (Taxol). The class given is cell-based. The note with it: cells cultured on a peptide that induced morphological changes; Taxol for the last 4 days of seven; without drug: spread cells forming aggregate. The text has this: FIG. 19 illustrates changes such as drug-resistance and morphology observed when a peptide-modified array supported culture of MCF-7 breast cancer cells for seven days and was exposed to the anti-cancer drug paclitaxel (Taxol) for the last 4 days. FIG. 19a presents confocal images of calcein-stained cells after culture in media without taxol for four peptides (including two controls) and FIG. 19b correspond to cells cultured in media with Taxol.

For “GGRDS (peptide identified by phage display panning on MDA-MB-231 cells) [scrambled peptide, negative control]”, the “binding of cells to peptide-modified paper” value in test [1] was “no binding”. In addition, the “adhesion of MDA-MB-231 breast carcinoma cells to peptide immobilized on paper” value in test [1] (fluorescent gel scanner (GFP fluorescence), 3 hours of incubation on the array, known bioactive peptides, FIG. 10a) is reported as “minimal binding”. On to “GRGDS (peptide identified by phage display panning on MDA-MB-231 cells)”, for which the “binding of cells to peptide-modified paper” value in test [1] is “binding”.

As to `CC(=O)O[C@H]1C(=O)[C@@]2(C)[C@H]([C@H](OC(=O)c3ccccc3)[C@]3(O)C[C@H](OC(=O)[C@H](O)[C@@H](NC(=O)c4ccccc4)c4ccccc4)C(C)=C1C3(C)C)[C@]1(OC(C)=O)CO[C@@H]1C[C@@H]2O` [Taxol, paclitaxel], in test [2], the cell morphology entry is “isolated, rounded cells”.
